# From patent US20150148304A1, “Novel Peptides and Analogs for Use in the Treatment of Macrophage Activation Syndrome” (Soligenix, Inc., priority 2013, published 2015)
# No end group written: not given here.
# Tests used:
# [1] = non-GLP pilot toxicology study, single IV administration, mouse; details: in vivo, IV injection over 30 to 60 seconds, actual dose, read-out: maximum tolerated dose (MTD) of a single administration
# Method: (§1) Two pilot and 2 definitive repeat-dose toxicity studies were conducted with RIVPA (SEQ ID NO. 5) in mice and cynomolgus monkeys using the intravenous (IV; slow bolus) route of administration.
# (§2) These resolved within a few minutes without detectable residual effects.
# [2] = non-GLP pilot toxicology study in nonhuman primates; type: in vivo, cynomolgus monkeys; details: 90, 180 and 220 mg/kg; NHP; resolved within a few minutes
# Method: as §1, §2
# [3] = GLP 14-day repeat-dose IV toxicity study in mice; type: in vivo, mouse
# Method: as §1
# The safety of multiple daily injections of RIVPA (SEQ ID NO. 5) has also been evaluated in GLP studies in mice and cynomolgus monkeys. In mouse, doses of 20, 60, or 90 mg/kg/day were given IV for 14 days. […] In survivors of all groups, there was no evidence of toxicity in any organ or abnormal biochemistry or hematology.
# (§3) In the latter study, no effect on T-cell, B-cell or NK-cell counts was observed after 14 days of intravenous RIVPA (SEQ ID NO. 5) dosing in the NHP. […] Collectively, there is no indication of a potential for RIVPA (SEQ ID NO. 5) to cause immunotoxicity or non-specific immune activation. No hyperactivation or suppression of adaptive immune responses, or other impact on the phenotypes of cells associated with adaptive immunity, has been detected following RIVPA (SEQ ID NO. 5) administration.
# [4] = GLP 14-day repeat-dose IV toxicity study in cynomolgus monkeys; type: in vivo
# Method: as §1
# RIVPA (SEQ ID NO. 5) at 20, 80, 160 mg/kg/day was given IV to cynomolgus monkeys for 14 days. […] In all cases, these clinical signs resolved within a few minutes. […] A dose level of 80 mg/kg/day was considered to be the No-Observed-Adverse-Effect-Level (NOAEL) for this study.
# Overall, the NOAEL is considered to be 80 mg/kg/day for cynomolgus monkeys since transient clinical signs were limited to a single study and occurred in only 2 instances of the 98 administrations of the drug at this dose level.
# as §3
# [5] = distribution of radiolabelled RIVPA to the mouse CNS; type: in vivo; details: dose levels of 20 or 90 mg/kg
# Method: (§4) No effects of RIVPA (SEQ ID NO. 5) have been observed on the central nervous system (CNS) in any study at any dose level and little or no radiolabelled RIVPA (SEQ ID NO. 5) was found in the mouse CNS at dose levels of either 20 or 90 mg/kg.
# [6] = test system: battery of CNS receptors and ion channels; test: interaction with a battery of CNS receptors and ion channels in vitro; type: binding
# Method: as §4
# [7] = cardiovascular (CV)/pulmonary safety pharmacology study; type: in vivo, cynomolgus monkey
# Text: In 1 animal, the high dose caused a marked reduction in respiratory rate followed by bradycardia, hypotension and death.
# In summary, the major toxicological finding was an acute-onset respiratory depression, accompanied by labored breathing, recumbency and transient decreased activity.
# human normal blood cells = test: proliferation of normal blood cells in vitro (human); type: cell-based
# [8] = test system: primary human leukemia cells; test: proliferation of primary leukemia cells in vitro; type: cell-based
# [9] = toxicology and PK studies in mice with alternate routes of administration; details: mouse, in vivo, other: intraperitoneal or subcutaneous
# [10] = Phase 1 study in healthy volunteers, pharmacokinetics; type: in vivo, human
# Text: Following IV administration in human subjects and consistent with findings in animal studies, RIVPA (SEQ ID NO. 5) is cleared from the circulation within minutes. […] Following the rapid decline, a slower elimination phase was observed. […] Maximum plasma concentrations and total exposure levels were dose-proportional and clearance of RIVPA (SEQ ID NO. 5) from the circulation was rapid, consistent with the mouse and NHP experience.
# In light of the high clearance and short elimination half-life, accumulation following daily injection was not expected to occur.
# whole blood = test: ex vivo LPS stimulation of whole blood from Phase 1 subjects, cytokine/chemokine Activity Ratios; type: cell-based, human; details: dose range 0.15-2 mg/kg; 4 hours in vitro LPS stimulation of whole blood
# Method: In ex vivo investigations using blood samples obtained during the Phase 1 healthy human volunteer study, a number of cytokine and chemokine analytes were quantified after 4 hours of in vitro stimulation of whole blood with LPS. The inter-individual variability in analyte levels was larger than any variation in time or response to RIVPA (SEQ ID NO. 5) or placebo administration and the data were therefore self-normalized using the individual pre-dose analyte level to standardize all responses for each individual subject (the Activity Ratio). RIVPA (SEQ ID NO. 5) effects on the analyte Activity Ratios (ARs) were neither constant throughout time, nor linearly dose responsive.
# [11] = acute toxicity (respiratory depression) dose levels, NHP; type: in vivo, cynomologus monkey
# Method: The observed respiratory depression occurred at different dose levels in different species, and was not predicted by allometric scaling. In particular, the mouse appeared to be the most sensitive species with acute toxicity occurring rarely at 60 mg/kg (HED: ˜5 mg/kg) and commonly at 90 mg/kg (HED: ˜7 mg/kg). In contrast in NHP (cynomologus monkey), acute toxicity occurred occasionally at 160 mg/kg (HED: ˜50 mg/kg) and consistently at 240 mg/kg (HED: ˜78 mg/kg).
# [12] = single IV doses of 20 or 80 mg/kg
substance,measurement,setting,value
"RIVPA-NH2 [RIVPA, L-arginyl-L-isoleucyl-L-valyl-L-prolyl-L-alanine-amide]",MTD,[1],88 mg/kg
same,clinical signs during and shortly after dosing,[2],mild clinical signs
same,adverse effects at 20 mg/kg,"[3]; 20 mg/kg/day IV for 14 days, mouse",No adverse effects were observed
same,mortality at 60 mg/kg,"[3]; 60 mg/kg/day IV for 14 days, mouse",Lethality was also observed in 1 animal
same,mortality at high dose,"[3]; 90 mg/kg/day IV for 14 days, mouse",Deaths were observed
same,"immune-related organ weights, histopathology, hematology and clinical chemistry",[3]; mouse 14-day toxicity study,no changes were observed
same,clinical signs at 160 mg/kg,"[4]; 160 mg/kg/day IV for 14 days, cynomolgus monkeys, during and shortly after dosing",Transient decreased activity and partially closed eyes
same,toxicity at 20 and 80 mg/kg/day,"[4]; 20 and 80 mg/kg/day IV for 14 days, cynomolgus monkeys",did not result in any evidence of toxicity
same,"immune-related organ weights, histopathology, hematology and clinical chemistry",[4]; NHP 14-day toxicity study,no changes were observed
same,"T-cell, B-cell or NK-cell counts",[4]; after 14 days of intravenous dosing in the NHP,no effect
same,NOAEL at 14 days,"[4]; cynomolgus monkey, in vivo, IV for 14 days, cynomolgus monkeys, read-out: No-Observed-Adverse-Effect-Level (NOAEL) for this study",80 mg/kg/day
same,overall NOAEL for cynomolgus monkeys,"[4]; overall across studies, IV",80 mg/kg/day
same,radiolabelled RIVPA found in the mouse CNS,[5],little or no
same,interaction with CNS receptors and ion channels,[6],No interaction was detected
same,clinical signs at 220 mg/kg,"[7]; 220 mg/kg, death in 1 animal","transient, severe clinical signs"
same,cardiac toxicity or QT prolongation,[7]; nonhuman primates,no cardiac toxicity or QT prolongation
same,clinical signs at 80 mg/kg,"[7]; single IV 80 mg/kg, during dosing",transient drooping eye lids and prostration
same,cardiovascular effects and ECG parameters,[7]; [12],no cardiovascular effects or changes in electrocardiogram (ECG) parameters
same,respiratory effects,[7]; [12],No respiratory effects were observed
same,proliferation of human normal blood cells,human normal blood cells,did not promote the proliferation
same,proliferation of primary human leukemia cells,[8],did not promote the proliferation
same,NOAEL,[9],> 200 mg/kg
same,"pre-dose concentrations on Days 5, 6, 7 and Day 8","[10]; daily IV for 7 days, all subjects",below the lower limit of quantitation
same,Tmax,"[10]; human, plasma, intravenous, after start of infusion, dose range 0.15 mg/kg to 8 mg/kg, read-out: mean time of maximum concentration (Tmax)",4 to 4.8 min
same,time after start of infusion for plasma levels to decrease to less than 10 percent of Cmax,"[10]; single-dose phase, 4-minute IV infusion",≤ 9 min
same,maximum plasma concentrations and total exposure levels versus dose,"[10]; single-dose phase, IV",dose-proportional
same,"anti-inflammatory status (higher TNF RII and IL-1ra, lower TNFα and IL-1β)",whole blood,evidence of an increase
same,HED of dose at which acute toxicity occurs occasionally,[11]; NHP 160 mg/kg,~50 mg/kg
same,HED of dose at which acute toxicity occurs consistently,[11]; NHP 240 mg/kg,~78 mg/kg
